# Assay results as given in patent publication US10179115B2, “Methods for treating malaria using potassium channel inhibitors” (THE CHILDREN'S MEDICAL CENTER CORPORATION, priority 2015, dated 2019).
# Where two headings read alike, the source gives them in different places.
# Columns and labels:
# P. falciparum 3D7 [1] = assay: in vitro growth inhibition of P. falciparum 3D7 over one asexual cycle; type: cell-based; conditions: Plasmodium falciparum
# Source text: This nonlinear regression curve is representative of seven assays, each performed in triplicate.
# P. falciparum 7G8 = assay: in vitro growth inhibition of P. falciparum 7G8; type: cell-based; conditions: Plasmodium falciparum
# P. falciparum W2mef = assay: microbe, parasite or virus in culture; type: cell-based; conditions: Plasmodium falciparum; for IC50: read-out: IC50 (mean ± 95% confidence interval)
# P. knowlesi H1 = assay: in vitro growth inhibition of P. knowlesi H1 cultured in rhesus erythrocytes; type: cell-based; conditions: Plasmodium knowlesi, Erythrocyte, in Macaca mulatta
# Source text: (§1) To identify a relationship between senicapoc activity and human erythrocytes, P. knowlesi H1 cultured in rhesus erythrocytes and P. knowlesi YH-1 adapted for culture in human erythrocytes were each treated with senicapoc. There was no difference between the senicapoc IC50s for H1 and YH-1 (P=0.14) (Table 1). Senicapoc was similarly effective against parasitized human and rhesus erythrocytes.
# P. knowlesi YH-1 = assay: in vitro growth inhibition of P. knowlesi YH-1 adapted for culture in human erythrocytes; type: cell-based; conditions: Plasmodium knowlesi, Erythrocyte
# Source text: as §1
# human Plasmodium strains = assay: in vitro growth inhibition, all human Plasmodium strains tested; type: cell-based
# P. falciparum 3D7 [2] = assay: growth inhibition through the 48-hour asexual blood stage by microscopy and flow cytometry; type: cell-based, Plasmodium falciparum; conditions: P<0.008
# Experimental: Parasitemia was determined by flow cytometry and confirmed with microscopy (not shown). […] Data presented are representative of three replicates.
# Mean fluorescence intensity (WI), determined by flow cytometry, is shown as a measure of parasite viability. […] The data point for “No drug” at 48 h was gated for schizonts only (20% of infected cells) to eliminate signal from reinvaded ring-stage parasites. Data for other time points were not gated, as schizonts represented 5% of infected cells.
# To determine senicapoc's activity through the 48-hour asexual blood stage of the parasite, growth inhibition of P. falciparum 3D7 was characterized throughout the cycle by microscopy and flow cytometry.
# P. yoelii 17X-NL = assay: in vivo efficacy against blood-stage parasites in infected C57BL/6 mice
# Experimental: C57BL/6 mice infected with P. yoelii 17X-NL were treated by gavage with vehicle or senicapoc 400 or 800 mg/kg daily from days 2 to 10 post-infection (highlighted area) to mimic a preventive therapy.
# FIG. 7 is a line graph showing senicapoc suppressed parasite growth in an in vivo murine model following established infection. C57BL/6 mice infected with P. yoelii 17X-NL were treated with vehicle or senicapoc 400 mg/kg twice daily from day 8 to day 15 postinfection (highlighted area) to mimic treatment of an active infection.
# To establish in vivo efficacy against blood-stage parasites, C57BL/6 mice infected with P. yoelii 17X-NL (nonlethal strain) were treated with vehicle or senicapoc. […] Parasitemia increased after the drug was stopped (FIG. 6).
# P. yoelii = type: in vivo; conditions: IK-1-/- mice, 400 mg/kg twice daily, days 8 to 15
# Experimental: IK-1^−/− and IK-1^+/+ mice were treated with senicapoc twice daily on postinoculation days 8 to 15 (highlighted area).
# To test whether senicapoc targets the Gardos channel in malaria-infected erythrocytes, we assessed the ability of P. yoe-lii to grow in the presence and absence of the channel in vivo using a Gardos knockout (IK-1^−/−) mouse model (Shmukler B E, Hsu A, Alves J, Trudel M, Rust M B, Hubner C A, Rivera A, Alper S L. 2013. N-ethylmaleimide activates a Cl(−)-independent component of K(+) flux in mouse erythrocytes. Blood Cells Mol Dis 51:9-16 and Rifler M, Bobbala D, Koka S, Boini K M, Mahmud H, Kasinathan R S, Shumilina E, Amann K, Beranek G, Sausbier U, Ruth P, Sausbier M, Lang F, Huber S M. 2010. […] The inventors then assessed the effectiveness of senicapoc in the presence and absence of the channel in vivo. P. yoelii-infected IK-1^−/− and IK-1^+/+ mice were treated with senicapoc 400 mg/kg twice daily.
# [3] = patients with sickle cell disease; cited from earlier work
# [4] = primates, daily doses of 1,000 mg/kg for 9 months; cited from earlier work
# [5] = canines; cited from earlier work
# [6] = cited from earlier work
# [7] = patients with SCD; cited from earlier work
# [8] = human and animal studies for SCD; cited from earlier work
# [9] = P. falciparum 3D7, read-out: IC50 (mean ± 95% confidence interval)
# [10] = P. falciparum 7G8, Res CQ, read-out: IC50 (mean ± 95% confidence interval)
# [11] = read-out: IC90 (mean ± 95% confidence interval)
# [12] = read-out: IC50 (mean ± 95% confidence interval)
smiles,measurement,setting,value
"CCN(CC)CCCC(C)Nc1ccnc2cc(Cl)ccc12 (stereo not drawn) [CQ, chloroquine]",IC50,"P. falciparum 3D7 [1]; 3D7, read-out: IC50 (mean ± 95% confidence interval)",0.0156 ± 0.00331 µM
same,IC50,"P. falciparum 7G8; 7G8, read-out: IC50 (mean ± 95% confidence interval)",0.0979 ± 0.0204 µM
same,IC50,P. falciparum W2mef,0.316 ± 0.135 µM
"C[C@H]1[C@@H](O)O[C@@H]2O[C@@]3(C)CC[C@H]4[C@H](C)CC[C@@H]1[C@@]24OO3 [DHA, dihydroartemisinin]",IC50,P. falciparum 3D7 [1]; [9],0.00273 ± 0.00155 µM
same,IC50,P. falciparum 7G8; [10],0.00165 ± 0.00124 µM
same,IC50,P. falciparum W2mef,0.00516 ± 0.00428 µM
"OC(c1cc(C(F)(F)F)nc2c(C(F)(F)F)cccc12)C1CCCCN1 (stereo not drawn) [MQ, mefloquine]",IC50,P. falciparum 3D7 [1]; [9],0.0101 ± 0.00783 µM
same,IC50,P. falciparum 7G8; [10],0.00363 ± 0.00058 µM
same,IC50,P. falciparum W2mef,0.0267 ± 0.0155 µM
"NC(=O)C(c1ccccc1)(c1ccc(F)cc1)c1ccc(F)cc1 [senicapoc, 2,2-bis(4-fluorophenyl)-2-phenylacetamide]",IC50,P. falciparum 3D7 [1]; [9],6.74 ± 0.25 µM
same,IC90,"P. falciparum 3D7 [1]; P. falciparum 3D7, read-out: IC90 (mean ± 95% confidence interval)",10.2 ± 2.07 µM
same,IC50,"P. falciparum 3D7 [1]; blood-stage P. falciparum 3D7, FIG. 1, read-out: IC50",6.7 µM
same,IC50,P. falciparum 7G8; [10],10.9 ± 2.3 µM
same,IC90,"P. falciparum 7G8; P. falciparum 7G8, Res CQ, read-out: IC90 (mean ± 95% confidence interval)",22.3 ± 9.52 µM
same,IC50,P. falciparum W2mef,9.24 ± 3.13 µM
same,IC90,P. falciparum W2mef; [11],12.3 ± 1.82 µM
same,IC50,P. knowlesi H1; [12],17.5 ± 6.74 µM
same,IC90,P. knowlesi H1; [11],31.4 ± 11.8 µM
same,IC50,P. knowlesi YH-1; [12],11 ± 1.38 µM
same,IC90,P. knowlesi YH-1; [11],37.4 ± 1.19 µM
same,IC90 higher than the IC50,human Plasmodium strains,< 2 fold
same,Nucleic acid content measured by mean fluorescence intensity (MFI),"P. falciparum 3D7 [2]; at 36 h, treated cultures",weaker
same,Parasitemia measured by flow cytometry,"P. falciparum 3D7 [2]; by 48 h postinvasion, treated cultures compared to control",reduced
same,parasitemia,"P. yoelii 17X-NL; prophylaxis on postinoculation days 2 to 10, by day 10, vehicle 12%, P=0.04",4.3%
same,parasitemia,"P. yoelii 17X-NL; treatment 400 mg/kg twice daily on postinoculation days 8 to 15, beyond day 13, not statistically significant (P=0.058)",lower parasitemia
same,activity against P. yoelii,P. yoelii,active
same,peak concentrations achieved in human trials,[3],337 nM
same,tolerability,[4],well tolerated
same,serum concentrations at which cardiotoxicity developed,[5],exceeded 18 M
same,protein binding,[6],highly protein bound
same,frequency of vasoocclusive pain episodes,[7],failed to modify
same,physiological disease markers,[7],improved
same,tolerability,[8],well tolerated
